The text below walks through data of patent publication US20240251792A1, “WEED CONTROL METHOD” (SYNGENTA CROP PROTECTION AG, priority 2021, published 2024).

Format in all cases: in vivo
One assay has as its system weeds and/or crops. As to the kind of experiment: Post-emergence biological efficacy (Table 4). The settings on record: 1000 g/ha, evaluated after 13 days. Put shortly:
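Weeds and crops were grown 14 days in a glasshouse, then sprayed post-emergence with compound formulated in acetone/F50 and diluted in 0.2% Genapol X080 to the final dose. Damage was scored after 13 days on a 0–100 scale, where 100 is total damage.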

Assay [1] deals with DIGSA. As to the kind of experiment: Biological efficacy, post-emergence glasshouse test (Table 2). The settings on record: 1000 g/ha, after 12 days. Put shortly:
(§1)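 Visual damage ratings (0 = undamaged, 100 = plant fully killed) are taken 12 days after treatment. Active ingredient goes on at a rate equivalent to 1000 g/ha, sprayed one day post-sowing for pre-emergence or seven days for post-emergence, on plants in unsterilised compost under 24/16 °C, 14 h photoperiod, 65% humidity.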

The subject of assay [2] is AMARE. The assay is described as above. The settings on record: 1000 g/ha, after 12 days. Put shortly: as §1
Assay [3] concerns STEME. The assay is described as above. The conditions noted are these: 1000 g/ha, after 12 days. Put shortly:
as §1

For assay [4], the system named is LOLPE. The description is as above. The settings on record: 1000 g/ha, after 12 days. The method, boiled down:
as §1

The test system of a further assay is SOLNI. As to the kind of experiment: Pre-emergence biological efficacy (Table 3). The conditions noted are these: 1000 g/ha, after 13 days. Put shortly:
(§2)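 Visual damage score (0 = no damage, 100 = total damage) read 13 days after spraying. Pots were sown one day earlier and held at 24/19 °C, 16 h light; the 50 g/l acetone/AMA formulation was diluted in 0.2% Genapol X080 to the final dose.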

For the next assay, the system named is SETFA. Nature of the assay: Pre-emergence biological efficacy (Table 3). The settings on record: 1000 g/ha, after 13 days. The method, boiled down:
as §2

For a further assay, the system named is ECHCG. Nature of the assay: Pre-emergence biological efficacy (Table 3). The settings on record: 1000 g/ha, after 13 days. The method, boiled down: as §2
Assay [5] deals with AMARE. Nature of the assay: Pre-emergence biological efficacy (Table 3). The conditions noted are these: 1000 g/ha, after 13 days. The method, boiled down: as §2
In assay [6] the test system is LOLPE. Nature of the assay: Pre-emergence biological efficacy (Table 3). The conditions noted are these: 1000 g/ha, after 13 days. Put shortly:
as §2

Another assay concerns IPOHE. Nature of the assay: Pre-emergence biological efficacy (Table 3). The conditions noted are these: 1000 g/ha, after 13 days. The method, boiled down: as §2
Assay [7] concerns DIGSA. Nature of the assay: Biological efficacy, pre-emergence glasshouse test (Table 2). The conditions noted are these: 1000 g/ha, after 12 days. Put shortly: as §1
In assay [8] the test system is AMARE. Described as above. The conditions noted are these: 1000 g/ha, after 12 days. The method, boiled down: as §1
For assay [9], the system named is STEME. The assay is described as above. The settings on record: 1000 g/ha, after 12 days. Put shortly:
as §1

Assay [10] relates to LOLPE. The description is as above. The conditions noted are these: 1000 g/ha, after 12 days. The method, boiled down:
as §1

The structures appear in SMILES notation.

Take `COc1ccccc1C(F)(F)C(=O)O` [Compound 1-9]: the “damage to plant AMARE (100=total damage; 0=no damage)” value in the assay on weeds and/or crops (AMARE) is reported as 70. In addition, the “damage to plant ECHCG (100=total damage; 0=no damage)” value in the assay with weeds and/or crops (ECHCG) turned out to be 0. For the same compound, the “damage to plant IPOHE (100=total damage; 0=no damage)” value in the assay with weeds and/or crops (IPOHE) is 60. For the same compound, in the assay on weeds and/or crops (LOLPE), the “damage to plant LOLPE (100=total damage; 0=no damage)” value was 0. In addition, the “damage to plant SETFA (100=total damage; 0=no damage)” value in the assay on weeds and/or crops (SETFA) came to 0. Moreover, the “damage to plant SOLNI (100=total damage; 0=no damage)” value in the assay with weeds and/or crops (SOLNI) was determined as 60. The “score (100=total damage to plant, 0=no damage to plant)” value with DIGSA [1] is given as 0; in the assay on AMARE [2], 90; in the assay with STEME [3], 80; in the assay on LOLPE [4], 0; in the assay on DIGSA [7], 0; in the assay with AMARE [8], 80. In addition, the “score (100=total damage to plant, 0=no damage to plant)” value in the assay with STEME [9] is on record as 60; with LOLPE [10], 0. Moreover, the “evaluation (100=total damage to plant; 0=no damage to plant)” value in the assay with SOLNI is recorded as 90; with SETFA, 20; in the assay on ECHCG, 20; in the assay with AMARE [5] it was 70; in the assay on LOLPE [6] it was 20; in the assay with IPOHE it was 60.
